pIC50: −log10 of the molar value.
What was measured:
[1] = test system: CIA mice; experiment: CIA mouse model: joint histopathology scores, day 36; assay type: in vivo, DBA/1 mice
From the text: After 1–2 days in fixative and 4–5 days in 5% formic acid for decalcification, tissues were trimmed and processed for paraffin embedding. Paws were embedded in paraffin in the frontal plane, and the knees were embedded with the patella facing down. Ankles, if left attached to the hind paw, were also embedded in the frontal plane but may be detached and sectioned in the sagittal plane for special purposes. Left/right pairs were typically embedded in the same block. Sections were cut and stained with toluidine blue.
The paw score criteria were as follows: 0 = Normal. 0.5 = Very minimal, affects only 1 joint or minimal multifocal periarticular infiltration of inflammatory cells. 1 = Minimal infiltration of inflammatory cells in synovium and periarticular tissue of affected joints. 2 = Mild infiltration of inflammatory cells. When referring to paws, generally restricted to affected joints (1–3 affected). 3 = Moderate infiltration with moderate edema. When referring to paws, restricted to affected joints, generally 3–4 joints and the wrist or ankle. 4 = Marked infiltration affecting most areas with marked edema, 1 or 2 unaffected joints may be present. 5 = Severe diffuse infiltration with severe edema affecting all joints (to some extent) and periarticular tissues.
The knee score criteria were as follows: 0 = Normal. 0.5 = Very minimal, affects only one area of the synovium or minimal multifocal periarticular infiltration of inflammatory cells. 1 = Minimal infiltration of inflammatory cells in synovium and periarticular tissue of affected synovial areas. 2 = Mild diffuse infiltration of inflammatory cells. 3 = Moderate diffuse infiltration of inflammatory cells. 4 = Marked diffuse infiltration of inflammatory cells. 5 = Severe diffuse infiltration of inflammatory cells.
The cartilage damage score criteria were as follows: 0 = Normal. 0.5 = Very minimal = Affects marginal zones only of one to several areas (knees) or joints (paws). 1 = Minimal = Generally minimal to mild loss of toluidine blue staining (proteoglycan) with no obvious chondrocyte loss or collagen disruption in affected joints/areas. 2 = Mild = Generally mild loss of toluidine blue staining (proteoglycan) with focal areas of chondrocyte loss and/or collagen disruption in some affected joints/areas. Paws may have one or two digit joints with near total to total loss of cartilage. 3 = Moderate = Generally moderate loss of toluidine blue staining (proteoglycan) with multifocal chondrocyte loss and/or collagen disruption in affected joints/areas. Paws may have three or four joints with near total or total loss. In the knee, some matrix remains on any affected surface with areas of severe matrix loss. 4 = Marked = Marked loss of toluidine blue staining (proteoglycan) with multifocal marked (depth to deep zone or tidemark) chondrocyte loss and/or collagen disruption in most joints with a few unaffected or mildly affected. In the knee, one surface with total to near total cartilage loss. 5 = Severe = Severe diffuse loss of toluidine blue staining (proteoglycan) with severe (depth to tide mark) chondrocyte loss and/or collagen disruption in most or all joints.

[2] = test system: TAK1; conditions: read-out: potency as inhibitor of TAK1; cited from earlier work
[3] = test system: RA-FLS cells; experiment: Cytokine/chemokine proteome array, LPS-stimulated RA-FLS cells; assay type: cell-based, human; conditions: takinib 10 μM
Experimental: (§1) Rheumatoid arthritis fibroblast-like synoviocytes (RA-FLS) cells were prepared from surgical synovial samples at the University of Michigan as previously described. Cells were isolated from 4 individual patients (3 female, 1 male) and passaged no more than 2 times before use. Cells were cultured in CRML media, 10% FBS, 1% penicillin-streptomycin (PS), and 1% glutamate.
[…] Twenty-four hours after treatment, supernatant was added to Human Cytokine proteome array (R&D Systems). Cytokine kit was conducted in accordance with manufacturer protocol. Chemiluminescence was used to visualize protein quantities.

[4] = test system: RA-FLS cells; experiment: NF-κB signaling protein array, TNF-stimulated RA-FLS cells; assay type: cell-based, human; conditions: TNF 30 ng/mL 24 h
Experimental: as §1
Briefly, 10^6 cells were plated and either no treatment (naïve) or pretreated with takinib (10 μM) or vehicle (DMSO) for 30 min prior to stimulation with TNF (30 ng/mL) for 30 min at 37 °C in 5% CO2 for phospho-kinase assay (R&D Systems). NF-κB and cytokine assays were performed as previously described; however, cells were incubated for 24 h post-TNF (30 ng/mL) or LPS (10 ng/mL) stimulation.

CCCn1/c(=N/C(=O)c2cccc(C(N)=O)c2)[nH]c2ccccc21 [takinib]
reduction of disease burden ([1]; 50 mg/kg daily (discussion)): ~ 40% | reduction of overall periosteal bone width vs vehicle ([1]; 50 mg/kg daily, all joints, p = 0.06): 35% | reduction of overall sum score of knees ([1]; 50 mg/kg daily, day 36): ~ 40% | cartilage damage score, all joints ([1]; 50 mg/kg daily, day 36, p = 0.013): significantly reduced | inflammation score, all joints ([1]; 50 mg/kg daily, day 36, p = 0.019): significantly reduced | reduction of overall joint pathology (all joints summed histological score) vs vehicle ([1]; 50 mg/kg daily, day 36, p = 0.02): ~ 30% | average reduction in disease pathology, hind paws and forepaws ([1]; 50 mg/kg daily, inflammation, pannus, cartilage damage, bone resorption, periosteal bone formation): 20–30% | histological score of cartilage damage, knees ([1]; 50 mg/kg daily, p = 0.0042): significantly reduced | histological score of inflammation, knees ([1]; 50 mg/kg daily, p = 0.0044): significantly reduced | reduction of bone resorption histological score, knees ([1]; 50 mg/kg daily, trend): ~ 40% | reduction of pannus histological score, knees ([1]; 50 mg/kg daily, trend): ~ 40% | overall sum histological score, hind paws ([1]; 50 mg/kg daily, vs vehicle, p = 0.0078): reduced | overall sum histological score, forepaws ([1]; 50 mg/kg daily, vs vehicle, p = 0.0091): reduced | pIC50 [2]: ~8.05 | MIF protein level [3]: No significant changes | Serpin E1 protein level [3]: No significant changes | CXCL1 level ([3]; p < 0.0003): significantly downregulated | CCL2 level ([3]; p < 0.0009): significantly downregulated | reduction of IL-8 ([3]; p < 0.006): 57% | reduction of IL-6 ([3]; p < 0.055): 33% | ASC expression, array signal, Mean ([4]; takinib 10 μM, n=4): 29.77 | BCL10 expression, array signal, Mean ([4]; takinib 10 μM, n=4): 15.76 | CARD6 expression, array signal, Mean ([4]; takinib 10 μM, n=4): 15.29 | CD40/TNFRSFS expression, array signal, Mean ([4]; takinib 10 μM, n=4): 23.956 | FADD/MORT1 expression, array signal, Mean ([4]; takinib 10 μM, n=4): 36.45 | Fas/TNFRSF6/CD95 expression, array signal, Mean ([4]; takinib 10 μM, n=4): 172.1241 | IKK1/IKKα/CHUK expression, array signal, Mean ([4]; takinib 10 μM, n=4): 55.68 | IKK2/IKKβ expression, array signal, Mean ([4]; takinib 10 μM, n=4): 112.6481 | IKKγ/NEMO expression, array signal, Mean ([4]; takinib 10 μM, n=4): 107.307 | IL-1 RI expression, array signal, Mean ([4]; takinib 10 μM, n=4): 21.68 | IL-17 RA expression, array signal, Mean ([4]; takinib 10 μM, n=4): 19.1835 | IL-18 Rα expression, array signal, Mean ([4]; takinib 10 μM, n=4): 17.5855 | IRAK1 expression, array signal, Mean ([4]; takinib 10 μM, n=4): 26.78 | IRF5 expression, array signal, Mean ([4]; takinib 10 μM, n=4): 16.411 | IRF8 expression, array signal, Mean ([4]; takinib 10 μM, n=4): 17.251 | IkBα expression, array signal, Mean ([4]; takinib 10 μM, n=4): 33.4 | IkBε expression, array signal, Mean ([4]; takinib 10 μM, n=4): 178.592 | JNK1/2 expression, array signal, Mean ([4]; takinib 10 μM, n=4): 19.76 | JNK2 expression, array signal, Mean ([4]; takinib 10 μM, n=4): 17.3675 | LTBR/TNFRSF3 expression, array signal, Mean ([4]; takinib 10 μM, n=4): 22.136 | MYD88 expression, array signal, Mean ([4]; takinib 10 μM, n=4): 36.28 | Metadherin/AEG-1 expression, array signal, Mean ([4]; takinib 10 μM, n=4): 31.01 | NFκB1 expression, array signal, Mean ([4]; takinib 10 μM, n=4): 66.143 | NFκB2 expression, array signal, Mean ([4]; takinib 10 μM, n=4): 136.3483 | NGF R/TNFRSF16 expression, array signal, Mean ([4]; takinib 10 μM, n=4): 16.68 | RelA/p65 (pS529) array signal, Mean ([4]; takinib 10 μM, n=4): 41.57 | RelA/p65 expression, array signal, Mean ([4]; takinib 10 μM, n=4): 55.81 | SHARPIN expression, array signal, Mean ([4]; takinib 10 μM, n=4): 17.06 | SOCS6 expression, array signal, Mean ([4]; takinib 10 μM, n=4): 64.37 | STAT1 (pY701) array signal, Mean ([4]; takinib 10 μM, n=4): 15.5275 | STAT1p91 expression, array signal, Mean ([4]; takinib 10 μM, n=4): 116.4024 | STAT2 (pY689) array signal, Mean ([4]; takinib 10 μM, n=4): 15.96 | STAT2 expression, array signal, Mean ([4]; takinib 10 μM, n=4): 148.6364 | STING/TMEM173 expression, array signal, Mean ([4]; takinib 10 μM, n=4): 106.8409 | TLR2 expression, array signal, Mean ([4]; takinib 10 μM, n=4): 15.725 | TNF RI/TNFRSF1A expression, array signal, Mean ([4]; takinib 10 μM, n=4): 14.7 | TNF RII/TNFRSF1B expression, array signal, Mean ([4]; takinib 10 μM, n=4): 18.3335 | TRAF2 expression, array signal, Mean ([4]; takinib 10 μM, n=4): 17.884 | TRAIL R1/DR4 expression, array signal, Mean ([4]; takinib 10 μM, n=4): 21.6 | TRAIL R2/DR5 expression, array signal, Mean ([4]; takinib 10 μM, n=4): 91.34 | c-Rel expression, array signal, Mean ([4]; takinib 10 μM, n=4): 16.52 | clAP1/BIRC2 expression, array signal, Mean ([4]; takinib 10 μM, n=4): 25.47 | clAP2/BIRC3 expression, array signal, Mean ([4]; takinib 10 μM, n=4): 18.82 | p53 (pS46) array signal, Mean ([4]; takinib 10 μM, n=4): 14.94 | p53 expression, array signal, Mean ([4]; takinib 10 μM, n=4): 17.85 | number of NF-κB signaling proteins significantly altered ([4]; takinib, out of 45 profiled): 20

Source: PMC6918687, “Pharmacological inhibition of TAK1, with the selective inhibitor takinib, alleviates clinical manifestation of arthritis in CIA mice” (Arthritis Research & Therapy, 2019)
